Assay results: patent US20240246940A1, “HETEROARYL DERIVATIVE COMPOUND AND USE THEREOF” (VORONOI INC., priority 2021, published 2024)

Key:
[1] = system: HaCaT cells (EGFR expressing cell line); experiment: HaCaT cell proliferation inhibitory activity (CellTiter-Glo, 72 hours); type: cell-based; conditions: Homo sapiens
Protocol: (§1) To evaluate the cell proliferation inhibitory activity of the compound according to the present invention on HER2 and EGFR kinases, the following method was performed using HER2 overexpressing cell lines (SK-BR-3, BT-474, and N-87) and EGFR expressing cell line (HaCaT).
(§2) McCOY'S 5A supplemented with 10% FBS was used for SK-BR-3 cells, RPMI-1640 medium supplemented with 20% FBS was used for BT-474 cancer cells, and RPMI-1640 medium supplemented with 10% FBS was used for N-87 cancer cells. DMEM supplemented with 10% FBS was used for HaCaT cells.
(§3) For SK-BR-3 cells, 5000 cells were aliquoted into each well of a white clear bottom 96 well plate (Corning) 48 hours before treatment with the compounds of Examples. For BT-474 cells, 5000 cells were aliquoted into each well of a white clear bottom 96 well plate (Corning) 48 hours before treatment with the compounds of Examples. For N-87 cells, 5000 cells were aliquoted into each well of a white clear bottom 96 well plate (Corning) 24 hours before treatment with the compounds of Examples. For HaCaT cells, 3000 cells were aliquoted into each well of a white clear bottom 96 well plate (Corning) 24 hours before treatment with the compounds of Examples. For SK-BR-3 cells and BT-474 cells, the compounds of Examples were diluted in dimethyl sulfoxide (three-fold dilution, a total of 11 concentrations) and injected each in an amount of 1 μl to a final concentration of 0.2 nM to 10 μM. For N-87 cells, the compounds of Examples were diluted in dimethyl sulfoxide (five-fold dilution, a total of 11 concentrations) and injected each in an amount of 0.5 μl to a final concentration of […] to 5 μM. For HaCaT cells, the compounds of Examples were diluted in dimethyl sulfoxide (three-fold dilution, a total of 11 concentrations) and injected each in an amount of 0.5 μl to a final concentration of 0.8 nM to 45 μM. For the measurement of living cells, the cells were stored at room temperature for 10 minutes using CellTiter-Glo cell viability reagent (Promega) after a certain period of time (SK-BR-3: 120 hours, BT-474: 120 hours, N-87: 72 hours, and HaCaT: 72 hours) post treatment with the compounds of Examples, and the luminescence intensity thereof was measured using a reader (SynergyNeo, Biotek). Each test was repeated three times.
(§4) The result values were calculated as a cell growth rate (%) compared to those of the control group. A graph was created using the GraphPad Prism version 5.0 program, and GI50 values were calculated.

[2] = system: SK-BR-3 cells (HER2 overexpressing cell line); experiment: SK-BR-3 cell proliferation inhibitory activity (CellTiter-Glo, 120 hours); type: cell-based; conditions: Homo sapiens
Protocol: as §1, §2, §3, §4

Q: How did the GI50 [1] turn out when C=CC(=O)N1CC2(C1)CN(c1cc3c(Nc4cc(-c5ccco5)ccc4OC)ncnc3cc1OC)C(=O)O2 [Example 330, 2-acryloyl-7-(4-((5-(furan-2-yl)-2-methoxyphenyl)amino)-7-methoxyquinazolin-6-yl)-5-oxa-2,7-diazaspiro[3.4]octan-6-one] was run?
A: 150 to 1000 nM

Q: And the GI50 [2]?
A: 150 to 1000 nM

Q: For C=CC(=O)N1CCC(Oc2cc3c(Nc4cc(-c5cccnc5)ccc4OC)ncnc3cc2OC)C1 (centres unmarked) [Example 59, 1-(3-((7-methoxy-4-((2-methoxy-5-(pyridin-3-yl)phenyl)amino)quinazolin-6-yl)oxy)pyrrolidin-1-yl)prop-2-en-1-one], which GI50 [1] is on record?
A: > 1000 nM

Q: What about the GI50 [2] of the same molecule?
A: 150 to 1000 nM

Q: How did the GI50 [1] turn out when C=CC(=O)N1CC(Oc2cc3c(Nc4cc(-c5ccco5)ccc4OC4CCN(C)C4)ncnc3cc2OC)C1 (centres unmarked) [Example 241, 1-(3-((4-((5-(furan-2-yl)-2-((1-methylpyrrolidin-3-yl)oxy)phenyl)amino)-7-methoxyquinazolin-6-yl)oxy)azetidin-1-yl)prop-2en-1-one] was run?
A: ≤ 150 nM

Q: What about the GI50 [2] of the same molecule?
A: ≤ 150 nM

Q: With C=CC(=O)N1CC(Oc2cc3c(Nc4cc(-c5cccc(C(F)(F)F)c5)ccc4OC)ncnc3cc2OC)C1 [Example 9, 1-(3-((7-methoxy-4-((4-methoxy-3′-(trifluoromethyl)-[1,1′-biphenyl]-3-yl)amino)quinazolin-6-yl)oxy)azetidin-1-yl)prop-2-en-1-one] as the molecule, how does the GI50 [1] read?
A: 150 to 1000 nM

Q: And the GI50 [2]?
A: 150 to 1000 nM

Q: C=CC(=O)N1CC(Oc2cc3c(Nc4cc(-c5ccoc5)ccc4OC)ncnc3cc2OC)C1 [Example 45, 1-(3-((4-((5-(furan-3-yl)-2-methoxyphenyl)amino)-7-methoxy-quinazolin-6-yl)oxy)azetidin-1-yl)prop-2-en-1-one] was tested. Which GI50 [2] did it give?
A: ≤ 150 nM

Q: Which results are given for C=CC(=O)N1CC(Oc2cc3c(Nc4cc(-c5cnn6cccnc56)ccc4OC)ncnc3cc2OC)C1 [Example 39, 1-(3-((7-methoxy-4-((2-methoxy-5-(pyrazolo[1,5-a]pyrimidin-3-yl)phenyl)amino)quinazolin-6-yl)oxy)azetidin-1-yl)prop-2-en-1-one]?
A: GI50 [1]: 150 to 1000 nM; GI50 [2]: 150 to 1000 nM

Q: With C=CC(=O)N1CCC(Oc2cc3c(Nc4cc(-c5ccoc5)ccc4OC)ncnc3cc2OC)CC1 [Example 81, 1-(4-((4-((5-(furan-3-yl)-2-methoxyphenyl)amino)-7-methoxy-quinazolin-6-yl)oxy)piperidin-1-yl)prop-2-en-1-one] as the molecule, how does the GI50 [2] read?
A: 150 to 1000 nM

Q: With C=CC(=O)N1CC(Oc2cc3c(Nc4cc(-c5cccs5)ccc4OC4CCN(C)C4)ncnc3cc2OC)C1 (centres unmarked) [Example 240, 1-(3-((7-methoxy-4-((2-((1-methylpyrrolidin-3-yl)oxy)-5-(thiophen-2-yl)phenyl)amino)quinazolin-6-yl)oxy)azetidin-1-yl)prop-2-en-1-one] as the molecule, how does the GI50 [1] read?
A: ≤ 150 nM

Q: And the GI50 [2]?
A: ≤ 150 nM

Q: C=CC(=O)N1CC(Oc2cc3c(Nc4cc(-c5ccsc5)ccc4OC)ncnc3cc2OC)C1 [Example 47, 1-(3-((7-methoxy-4-((2-methoxy-5-(thiophen-3-yl)phenyl)amino)quinazolin-6-yl)oxy)azetidin-1-yl)prop-2-en-1-one] was tested. Which GI50 [2] did it give?
A: ≤ 150 nM

Q: C=CC(=O)N1CCC(Oc2cc3c(Nc4cc(-c5ccoc5)ccc4OC)ncnc3cc2OC)C1 (centres unmarked) [Example 64, 1-(3-((4-((5-(furan-3-yl)-2-methoxyphenyl)amino)-7-methoxy-quinazolin-6-yl)oxy)pyrrolidin-1-yl)prop-2-en-1-one] was tested. Which GI50 [2] did it give?
A: 150 to 1000 nM

Q: With C=CC(=O)N1CC(Oc2cc3c(Nc4cc(-c5cccnc5)ccc4OC)ncnc3cc2OC)C1 [Example 6, 1-(3-((7-methoxy-4-((2-methoxy-5-(pyridin-3-yl)phenyl)amino)quinazolin-6-yl)oxy)azetidin-1-yl)prop-2-en-1-one] as the molecule, how does the GI50 [2] read?
A: 150 to 1000 nM

Q: With COc1ccc(-c2ccco2)cc1Nc1ncnc2cc(OC)c(OC3CCN(C(=O)/C=C/CN(C)C)CC3)cc12 [Example 120, (E)-4-(dimethylamino) 1-(4-((4-((5-(furan-2-yl)-2-methoxyphenyl)amino)-7-methoxy-quinazolin-6-yl)oxy)piperidin-1-yl)but-2-en-1-one] as the molecule, how does the GI50 [2] read?
A: 150 to 1000 nM

Q: Which GI50 [2] does the source give for C=CC(=O)N1CC(Oc2cc3c(Nc4cc(-c5cnc6ccnn6c5)ccc4OC)ncnc3cc2OC)C1 [Example 32, 1-(3-((7-methoxy-4-((2-methoxy-5-(pyrazolo[1,5-a]pyrimidin-6-yl)phenyl)amino)quinazolin-6-yl)oxy)azetidin-1-yl)prop-2-en-1-one] here?
A: 150 to 1000 nM

Q: With C=CC(=O)N1CC(Oc2cc3c(Nc4cc(-c5ccc6occc6c5)ccc4OC)ncnc3cc2OC)C1 [Example 37, 1-(3-((4-((5-(benzofuran-5-yl)-2-methoxyphenyl)amino)-7-methoxy-quinazolin-6-yl)oxy)azetidin-1-yl)prop-2-en-1-one] as the molecule, how does the GI50 [2] read?
A: ≤ 150 nM

Q: C=CC(=O)N1CC(Oc2cc3c(Nc4cc(-c5cncs5)ccc4OC)ncnc3cc2OC)C1 [Example 46, 1-(3-((7-methoxy-4-((2-methoxy-5-(thiazol-5-yl)phenyl)amino)quinazolin-6-yl)oxy)azetidin-1-yl)prop-2-en-1-one] was tested. Which GI50 [2] did it give?
A: 150 to 1000 nM

Q: Which GI50 [2] does the source give for C=CC(=O)N1CC(Oc2cc3c(Nc4cc(-c5cccs5)ccc4OC)ncnc3cc2OC)C1 [Example 43, 1-(3-((7-methoxy-4-((2-methoxy-5-(thiophen-2-yl)phenyl)amino)quinazolin-6-yl)oxy)azetidin-1-yl)prop-2-en-1-one] here?
A: ≤ 150 nM

Q: C=CC(=O)N1CC(Oc2cc3c(Nc4cc(-c5ccn6ncnc6c5)ccc4OC)ncnc3cc2OC)C1 [Example 30, 1-(3-((4-((5-([1,2,4]triazolo [1,5-a]pyridin-7-yl)-2-methoxyphenyl)amino)-7-methoxy-quinazolin-6-yl)oxy)azetidin-1-yl)prop-2-en-1-one] was tested. Which GI50 [2] did it give?
A: 150 to 1000 nM

Q: C=CC(=O)N1CC(Oc2cc3c(Nc4cc(-c5ccnn5C)ccc4OC)ncnc3cc2OC)C1 [Example 42, 1-(3-((7-methoxy-4-((2-methoxy-5-(1-methyl-1H-pyrazol-5-yl)phenyl)amino)quinazolin-6-yl)oxy)azetidin-1-yl)prop-2-en-1-one] was tested. Which GI50 [2] did it give?
A: 150 to 1000 nM

Q: For C=CC(=O)N1CCC(Oc2cc3c(Nc4cc(-c5ccccc5)ccc4OC)ncnc3cc2OC)C1 (centres unmarked) [Example 58, 1-(3-((7-methoxy-4-((4-methoxy-[1,1′-biphenyl]-3-yl)amino)quinazolin-6-yl)oxy)pyrrolidin-1-yl)prop-2-en-1-one], which GI50 [2] is on record?
A: 150 to 1000 nM

Q: Which GI50 [1] does the source give for C=CC(=O)N1CCC(Oc2cc3c(Nc4cc(-c5ccc(C)o5)ccc4OC)ncnc3cc2OC)CC1 [Example 86, 1-(4-((7-methoxy-4-((2-methoxy-5-(5-methylfuran-2-yl)phenyl)amino)quinazolin-6-yl)oxy)piperidin-1-yl)prop-2-en-1-one] here?
A: 150 to 1000 nM

Q: For C=CC(=O)N1CCC(Oc2cc3c(Nc4cc(-c5ccccc5)ccc4OC)ncnc3cc2OC)CC1 [Example 65, 1-(4-((7-methoxy-4-((4-methoxy-[1,1′-biphenyl]-3-yl)amino)quinazolin-6-yl)oxy)piperidin-1-yl)prop-2-en-1-one], which GI50 [2] is on record?
A: ≤ 150 nM

Q: With C=CC(=O)N1CCC(Oc2cc3c(Nc4cc(-c5ccn6ncnc6c5)ccc4OC)ncnc3cc2OC)CC1 [Example 69, 1-(4-((4-((5-([1,2,4]triazolo[1,5-a]pyridin-7-yl)-2-methoxyphenyl)amino)-7-methoxy-quinazolin-6-yl)oxy)piperidin-1-yl)prop-2-en-1-one] as the molecule, how does the GI50 [2] read?
A: 150 to 1000 nM

Q: For C=CC(=O)N1CCC(Oc2cc3c(Nc4cc(-c5cccs5)ccc4OC)ncnc3cc2OC)C1 (centres unmarked) [Example 63, 1-(3-((7-methoxy-4-((2-methoxy-5-(thiophen-2-yl)phenyl)amino)quinazolin-6-yl)oxy)pyrrolidin-1-yl)prop-2-en-1-one], which GI50 [2] is on record?
A: 150 to 1000 nM

Q: Which GI50 [2] does the source give for C=CC(=O)N1CC(Oc2cc3c(Nc4cc(-c5ccco5)ccc4OC)ncnc3cc2OC)C1 [Example 44, 1-(3-((4-((5-(furan-2-yl)-2-methoxyphenyl)amino)-7-methoxy-quinazolin-6-yl)oxy)azetidin-1-yl)prop-2-en-1-one] here?
A: ≤ 150 nM

Q: C=CC(=O)N1CC(Oc2cc3c(Nc4cc(-c5ccccc5)ccc4OC)ncnc3cc2OC)C1 [Example 5, 1-(3-((7-methoxy-4-((4-methoxy-[1,1′-biphenyl]-3-yl)amino)quinazolin-6-yl)oxy)azetidin-1-yl)prop-2-en-1-one] was tested. Which GI50 [2] did it give?
A: ≤ 150 nM

Q: Which GI50 [2] does the source give for C=CC(=O)N1CC(Oc2cc3c(Nc4cc(-c5ccc(F)cc5)ccc4OC)ncnc3cc2OC)C1 [Example 7, 1-(3-((4-((4′-fluoro-4-methoxy-[1,1′-biphenyl]-3-yl)amino)-7-methoxy-quinazolin-6-yl)oxy)azetidin-1-yl)prop-2-en-1-one] here?
A: ≤ 150 nM
